The values below come from PMC10574767, “Extractives from Artemisia afra with Anti-Bacterial and Anti-Fungal Properties” (Plants, 2023).

Data set [1] relates to Pseudomonas aeruginosa ATCC 27853. Kind of data set: Serial dilution microplate MIC. The class given is cell-based. The following applies: Table 2. On the procedure:
(§1) The MIC value of the plant extracts and isolated compounds against one fungal and five bacterial strains (Salmonella Typhimurium ATCC 39183, Escherichia coli ATCC 25922, Pseudomonas aeruginosa ATCC 27853, Staphylococcus aureus ATCC 29213, Enterococcus faecalis ATCC 29212, and fungi culture, Candida albicans ATCC 10231) was assessed in triplicate using the serial dilution microplate method; acetone and DMSO were used as solvents. Bacterial cultures were grown in Mueller Hinton broth (Sigma Aldrich, St. Louis, MO, USA) overnight and adjusted to McFarland standard 1 (1 × 10^8 CFU/mL). Then, 100 µL of samples were transferred into the first well of a sterile 96-well microtiter plate, which contained 100 µL of water and a 1:1 serial dilution with sterilized distilled water was carried out. In each well, 100 µL of appropriately adjusted fungal or bacterial cultures were added, and the bacteria were subjected to final concentrations of 250–3.9 μg/mL for pure compounds and 2.5–0.02 mg/mL for crude extracts. Amphotericin-B and Gentamicin (Virbac, Carros, France) served as positive controls for fungi and bacteria, respectively. For sterility, water served as control, while acetone served as a negative control. The microplates were then incubated for 24 h at 37 °C. Following incubation, 40 µL of 0.2 mg/mL p-iodonitrotetrazolium violet (INT, Sigma Aldrich) dissolved in water (hot) was added to the wells before being incubated at 37 °C for another 2 h. In the case of fungi, the INT was added before incubation. The MIC was measured visually as the lowest concentration of the compounds/extracts that inhibited proliferation.

Data set [2] concerns Enterococcus faecalis ATCC 29212. The data set can be described thus: Serial dilution microplate MIC. The class given is cell-based. To be noted: Table 2. The procedure:
as §1

Data set [3] concerns Escherichia coli ATCC 25922. The data set can be described thus: Serial dilution microplate MIC. The class given is cell-based. The following applies: Table 2. The procedure:
as §1

In data set [4] the test system is Salmonella Typhimurium ATCC 39183. The data set can be described thus: Serial dilution microplate MIC. The class given is cell-based. To be noted: Table 2. The procedure: as §1
Data set [5] has as its system Staphylococcus aureus ATCC 29213. The data set can be described thus: Serial dilution microplate MIC. The class given is cell-based. The following applies: Table 2. The procedure: as §1
The test system of a further data set is Escherichia coli. Details: method as in ref 36 = [36]; 36. Koay Y.C. Wong K.C. Hasnah O. Ibrahim E.M.S. Mohammad Z.A. Chemical constituents and biological activities of Strobilanthes crispus L. Rec. Nat. Prod. 2013 7 59 64. To be noted: cited from earlier work.
Another data set has as its system Aspergillus niger. Details: method as in PMID 19844829, PMID 35453556. To be noted: cited from earlier work.
The test system of another data set is Bacillus subtilis. Details: method as in ref 36 = [36]; 36. Koay Y.C. Wong K.C. Hasnah O. Ibrahim E.M.S. Mohammad Z.A. Chemical constituents and biological activities of Strobilanthes crispus L. Rec. Nat. Prod. 2013 7 59 64. To be noted: cited from earlier work.
A further data set concerns Klebsiella pneumoniae. Further details: method as in ref 36 = [36]; 36. Koay Y.C. Wong K.C. Hasnah O. Ibrahim E.M.S. Mohammad Z.A. Chemical constituents and biological activities of Strobilanthes crispus L. Rec. Nat. Prod. 2013 7 59 64. The following applies: cited from earlier work.
A short description of another data set: in vitro. The following applies: monkey, LC50. The procedure: Cytotoxicity of compounds and extracts was tested against mammalian cells using the MTT assay. MCF-7 cancer cells were grown in a 5% CO2 incubator in Dulbecco’s Modified Eagle’s Medium (DMEM, Highveld Biological, Johannesburg, South Africa) supplemented with 10% fetal calf serum (Adcock-Ingram, Johannesburg, South Africa) and 1% penicillin-streptomycin (10,000 U/mL and 10 mg/mL streptomycin, Sigma Aldrich). In a 5% CO2 incubator, Vero cells were grown in a minimal essential medium (MEM, Highveld Biological, South Africa) supplemented with 5% fetal calf serum (Adcock-Ingram) and 0.1% gentamicin (Virbac). Cell suspensions were obtained from 70–80% confluent monolayer cultures and were plated in 96-well cell culture plates at a density of 1 × 10^4. Plates were incubated in a 5% CO2 incubator for 24 h at 37 °C. The cells were exposed to the extracts or compounds dissolved in the media at different concentrations for 48 h. Positive and negative controls were doxorubicin (Pfizer, New York, NYC, USA) and acetone or DMSO, respectively. After that, the wells were rinsed with phosphate-buffered saline (PBS, Sigma) and 200 µL of fresh medium was poured into the wells. Thirty microlitres (5 mg/mL) of MTT (Sigma) dissolved in PBS was added to each well, and the plates were incubated at 37 °C for 4 h. The medium from the wells was removed, rinsed, and 50 µL of 100% DMSO was added to the wells. At a wavelength of 570 nm, absorbance was measured using a microplate reader (BioTek Synergy, Beijing, China). Each sample concentration was tested in quadruplicate in two repeats (n = 8), and the concentration causing 50% inhibition of cell viability (LC50) was calculated. Selectivity index (SI) values for the extracts/compounds were obtained by dividing cytotoxicity LC50 values of normal (Vero) cells by those of the cancer cells.

For another data set, the system named is MRC-5. Details: method as in PMID 35453556, PMID 21294076. To be noted: cited from earlier work.
The test system of data set [6] is Candida albicans ATCC 10231. Kind of data set: Serial dilution microplate MIC (fungi). To be noted: Table 2. The class given is cell-based. On the procedure:
as §1

The subject of data set [7] is one fungal and five bacterial strains. The data set can be described thus: Serial dilution microplate MIC, whole panel. The class given is cell-based. To be noted: isolated compounds, all tested strains; highest concentration 250 µg/mL; read-out: MIC against all tested microorganisms. On the procedure:
as §1

The next data set relates to Salmonella Typhimurium. Details: method as in ref 36 = [36]; 36. Koay Y.C. Wong K.C. Hasnah O. Ibrahim E.M.S. Mohammad Z.A. Chemical constituents and biological activities of Strobilanthes crispus L. Rec. Nat. Prod. 2013 7 59 64. The following applies: cited from earlier work.

SMILES strings stand for the structures. In brackets after ≈: the same amount, converted by molar mass. Some results are limits rather than exact numbers.

As for `CC1(C)CC[C@]2(C)CC=C3[C@]4(C)CC[C@H]5C(C)(C)[C@@H](O)CC[C@]5(C)[C@H]4CC[C@@]3(C)[C@@H]2C1` [Compound 3β-Taraxerol, 3β-taraxerol], the MIC is more than 250 µg/mL in data set [1] (Pseudomonas aeruginosa, ATCC27853, isolated compounds, read-out: Minimum inhibitory concentration (MIC) P. aeruginosa); more than 250 µg/mL in [2] (Enterococcus faecalis, ATCC29212, isolated compounds, read-out: Minimum inhibitory concentration (MIC) E. faecalis); 250 µg/mL (≈ 586 µM) in data set [3] (Escherichia coli, ATCC25922, isolated compounds, read-out: Minimum inhibitory concentration (MIC) E. coli); 250 µg/mL (≈ 586 µM) in data set [4] (Salmonella enterica, isolated compounds, read-out: Minimum inhibitory concentration (MIC) S. Typhimurium); 250 µg/mL (≈ 586 µM) in [5] (Staphylococcus aureus, ATCC29213, isolated compounds, read-out: Minimum inhibitory concentration (MIC) S. aureus); 250 µg/mL (≈ 586 µM) in data set [6] (Candida albicans, ATCC10231, isolated compounds, read-out: Minimum inhibitory concentration (MIC) C. albicans). The MIC in [7] is more than 250 µg/mL. In addition, the “Selectivity index P. aeruginosa” value in data set [1] (in brackets, Vero LC50 vs MIC) was less than 0.8. In addition, the “Selectivity index E. faecalis” value in data set [2] (in brackets, Vero LC50 vs MIC) is listed as less than 0.8. In data set [3] (in brackets, Vero LC50 vs MIC), the “Selectivity index E. coli” value is on record as more than 0.8. In addition, in [4] (in brackets, Vero LC50 vs MIC), the “Selectivity index S. Typhimurium” value was more than 0.8. The “Selectivity index S. aureus” value in data set [5] (in brackets, Vero LC50 vs MIC) is more than 0.8. In the data set with Escherichia coli, the “MIC Escherichia coli” value is reported as 62.5 µg/mL (≈ 146 µM). In addition, the “MIC Aspergillus niger” value with Aspergillus niger is recorded as 100 µg/mL (≈ 234 µM). In addition, the “MIC Bacillus subtilis” value with Bacillus subtilis is given as 15.6 µg/mL (≈ 36.6 µM). Moreover, in the data set on Klebsiella pneumoniae, the “MIC Klebsiella pneumoniae” value is 62.5 µg/mL (≈ 146 µM). In addition, the CC50 at 48 h in “in vitro” is more than 200 µg/mL. In addition, the “Cytotoxicity MRC-5” value in the data set with MRC-5 is “inactive”. Further, in data set [6] (in brackets, Vero LC50 vs MIC), the “Selectivity index C. albicans” value is given as more than 0.8. The “MIC Salmonella Typhimurium” value in the data set on Salmonella Typhimurium is given as 62.5 µg/mL (≈ 146 µM).
